Assay results published in patent US20210332320A1, “ANTIMICROBIC SUSCEPTIBILITY TESTING USING MACHINE LEARNING” (Beckman Coulter, Inc., priority 2018, published 2021).

Tests used:
Type in all cases: cell-based
P. fluorescens [1] = experiment: Actual MIC (reference read after full growth period)
Method: In AST testing, a plurality of test wells are filled with inoculum and increasing concentrations of a number of different antimicrobial agents, for example antibiotics. The different antimicrobial agents may be diluted in a growth medium or liquid medium to concentrations that include those of clinical interest. After incubation, the turbidity will be increased or unchanged in test wells where growth has not been inhibited by the antimicrobics in those test wells. The MIC of each antimicrobial agent is measured by lack of growth with respect to each concentration of antimicrobial agent. It follows that the lowest concentration of antimicrobial agent displaying a lack of growth is the MIC. As set forth above, neural networks can be used to model growth patterns of a bacterial isolate over time at various drug concentrations. As long as the bacteria grows in the well with no drug, then a neural network can be created to use the count and area of the growth well and at the various drug concentrations to make an early prediction of the MIC. […]

P. fluorescens [2] = experiment: MIC prediction by neural network from digital microscopy of AST test wells
From the text: FIG. 8 provides an illustration of how data that can be used in an optimized AST method 101 can be captured from a test well. Test well 20 is embodied by a “384” style test well, having a clear viewing bottom. The volume of inoculum in test well 20 may be set to 20 microliters to reduce the amount of materials such as bulk diluents required by AST method 101 and/or minimize light artifacts and provide sampling of a consistent number of microbes from the 1:250 dilution of the 0.5 MacFarland inoculum. Decreasing the volume of inoculum in test well 20 generally increases the light artifacts. In some instances, capturing a single vertical plane 103 at 20× objective whereby AST camera 35 is set at 0.33 microns/pixel may be sufficient for sampling the inoculum and ensuring that each individual microbe is recognizable. However, these parameters are configurable and may change as desired by the user or the underlying needs of the system. Capturing three focal sites spaced about 5 microns apart within single vertical plane 103 may also provide a sufficient number of microbes in the sample to count for use in optimized AST method 101. These three focal sites are labeled site 105, site 107, and site 109 in FIG. 8. In an exemplary version of optimized AST method 101, each focal site is approximately 700×700 microns within single vertical plane 103, rather than capturing three sites in three different vertical planes. AST camera 35, optics system 9, and computer 49 are configured to capture an image of each focal site in consecutive time periods, manipulate each of these images, and thereafter use the data derived from these manipulated images to make a MIC determination. In some embodiments, to use a neural network such as illustrated in FIG. 24 to make a MIC prediction, a test well containing some concentration of an antimicrobial could be inoculated with a microorganism. Data could then be gathered by taking measurements in a manner similar to that described above in the context of the decision tree and neural network classifiers of FIGS. 20-23B and 25. These measurements, along with the identity and concentration of the antimicrobial in the test well could then be provided as inputs to the neural network's input nodes. The values provided on the network's output nodes could then be treated as indications of the likelihood that the concentrations corresponding to the output nodes were the MIC for the microorganism added to the test well. For example, when using a network which had been trained to provide a likelihood that a first concentration is the MIC on a first output node, a likelihood that a second concentration is the MIC on a second output node, and a likelihood that a third concentration is the MIC on a third output node, the concentration corresponding to the output node with the highest value (which might not be the same as the concentration of the antimicrobial in the test well from which the data was gathered) could be treated as the MIC. In some embodiments, rather than using values of the output nodes of a network such as shown in FIG. 24 as directly indicating the MIC, values from such output nodes may be used as inputs to another function that would provide a (potentially more reliable) MIC value. For example, in some embodiments, separate sets of measurements could be gathered from each of a plurality of test wells having different concentrations of the same antimicrobial, and those sets of measurements could each be provided as input to a neural network such as illustrated in FIG. 24. Each of those neural networks would then provide a prediction of the most likely MIC, and those predictions could be provided as input to another function (e.g., a statistical function, such as a mode or median identification function) that would provide a prediction that would be treated as the true MIC for the sample.

E. coli bacteria = experiment: Digital microscopy of E. coli bacteria exposed to antibiotic dilution (elongation); details: FIG. 17 versus unexposed FIG. 18
From the text: Data extraction step 117 may be configured to derive information regarding the ratio between the total count of microbes and the total area occupied by all of the microbes in the image. This information may be useful in determining whether the microbes are undergoing elongation over time. Elongation is a precursor to death and indicates the concentration of the antimicrobic dilution is negatively affecting the microbes. More specifically, elongation may occur when microbes such as bacteria encounter an effective amount of antibiotic drugs. For example, FIGS. 17 and 18 depict microbes embodied by E. coli bacteria. FIG. 17 depicts the E. coli after being exposed to a dilution of the antibiotic ampicillin, while FIG. 18 depicts the E. coli free from any ampicillin exposure. […] This elongation is a precursor to the death of the bacteria and illustrates that the concentration of ampicillin is sufficient to neutralize the bacteria. FIG. 18 illustrates normal growth. It follows that the ratio between the total area occupied by all of the bacteria and the bacteria count will increase over time to represent each bacterium elongating. For example, if a particular image sample includes 100 bacteria and each bacterium measures approximately 4 pixels each, the area occupied by the 100 bacteria within the image is 400 pixels. In this image sample, the ratio of bacteria area to bacteria count is 4.0. […]

CC(C)(O/N=C(\C(=O)N[C@@H]1C(=O)N2C(C(=O)[O-])=C(C[n+]3ccccc3)CS[C@H]12)c1csc(N)n1)C(=O)O [Caz, Ceftazidime]
actual MIC (P. fluorescens [1]): example was 2. μg/ml
final predicted MIC (P. fluorescens [2]; median of the predictions of the 11 drug concentration wells): which in this case is 2. μg/ml
Predicted MIC (P. fluorescens [2]; prediction from test well with dilution 0.06 μg/ml): 2 µg/mL
Predicted MIC (P. fluorescens [2]; prediction from test well with dilution 0.12 μg/ml): 2 µg/mL
Predicted MIC (P. fluorescens [2]; prediction from test well with dilution 0.25 μg/ml): 2 µg/mL
Predicted MIC (P. fluorescens [2]; prediction from test well with dilution 0.5 μg/ml): 2 µg/mL
Predicted MIC (P. fluorescens [2]; prediction from test well with dilution 1 μg/ml): 2 µg/mL
Predicted MIC (P. fluorescens [2]; prediction from test well with dilution 2 μg/ml): 2 µg/mL
Predicted MIC (P. fluorescens [2]; prediction from test well with dilution 4 μg/ml): 32 µg/mL
Predicted MIC (P. fluorescens [2]; prediction from test well with dilution 8 μg/ml): 2 µg/mL
Predicted MIC (P. fluorescens [2]; prediction from test well with dilution 16 μg/ml): 2 µg/mL
Predicted MIC (P. fluorescens [2]; prediction from test well with dilution 32 μg/ml): 2 µg/mL
Predicted MIC (P. fluorescens [2]; prediction from test well with dilution 64 μg/ml): 2 µg/mL

CC1(C)S[C@@H]2[C@H](NC(=O)[C@H](N)c3ccccc3)C(=O)N2[C@H]1C(=O)O [ampicillin]
growth morphology after exposure to a dilution of the antibiotic (E. coli bacteria): abnormal growth in the form of elongation
